Source: patent publication US20210282399A1, “FUNGICIDAL COMPOSITION” (priority 2018, published 2021)
Several values for one entry are separate records, joined by “and”; a condition that tells them apart may be missing. Equal values may be shown once.

Key:
[1] = system: Phakopsora pachyrhizi; test: Flow cytometric assay of fungicide efficacy on Phakopsora pachyrhizi urediniospores (healthy vs dead spores, metabolic activity); Wadley and Colby evaluation; type: cell-based; details: for EC50 (Mean) / EC50: based on perturbation of the metabolic activity
From the text: in which E represents the expected effect, e.g. percentage of pest control, for the combination of the three active ingredient at defined doses (for example equal to x, y and z respectively), X is the effect, e.g. percentage of pest control, observed for compound (I) at a defined dose (equal to x), Y is the effect, e.g. percentage of pest control, observed for compound (II) at a defined dose (equal to y), Z is the effect, e.g. percentage of pest control, observed for compound (III) at a defined dose (equal to z). When the effect, e.g. percentage of pest control, observed for the combination is greater than the expected effect, there is a synergistic effect. The ratio of observed action (Eobs) and expected action (Eexp), i.e. Eobs/Eexp expresses the factor of interaction level (R) which may be interpreted in accordance with Table 1a below.
In the Wadley method, synergistic activity is determined from dose response curves. With this method, the efficacy of the active ingredient (“a.i.”) is determined by comparing the degree of fungal attack on treated plants with that on untreated, similarly inoculated and incubated check plants. Each a.i. is generally tested at multiple. (e.g., 6) concentrations, and dose response curves are generated. The dose response curves are used to establish the EC50 (i.e., the effective concentration of a.i. providing 50% disease control) of the individual compounds as well as of the combinations (EC50Observed). The experimentally found values of the mixture at a given weight ratio are compared with the values that would have been found were only a complementary efficacy of the components was present as follows:
ECtheo=(a+b)/[(a/ECA)+(b/ECB)]
ECtheo=(a+b+c)/[(a/ECA)+(b/ECB+(c/ECC)]
The ratio EC50 (A+B)Theo/EC50(A+B)observed expresses the factor of interaction level (R) which may be interpreted in accordance with Table 1b below.
Soybean rust, caused by Phakopsora pachyrhizi, is one of the most important foliar diseases of soybean worldwide. Seed of soybean were sown in pots in a loam-vermiculite soil mix and placed inside a growth chamber maintained at 18° C./26° C. night/day and 60 to 70% RH with 16 h of light for 3 weeks.
First leaves were harvested and placed in Petri dishes on 1% water agar. A spore suspension (1×10^5 spores/ml of water) were prepared from infected leaf samples and was sprayed on leaf pieces using an atomizer attached to an air compressor. Petri dishes containing leaf pieces were incubated inside a growth chamber maintained at 18° C./26° C. night/day and 60 to 70% RH with 16 h of light during 2-3 weeks. Urediniospores (1×10^5 spores/ml of water) were harvested from infected leaf samples and equal volumes of spore suspension and fungicide diluted in water were mixed in 96 well plate. Spores are stained by two fluorescent dyes, one which stained dead spores and a one for which intensity of staining is directly correlated to metabolic activity.
Flow cytometric analyses were performed on a CyFlow Cube 8 equipped with an autoloading station (Sysmex Partec GmbH, Gorlittz, Germany). The fluorescences were collected for 2000 to 3000 spores per well and were used to discriminate: (i) healthy spores and (ii) dead spores. The fungicide efficacies were then calculated from the percentage of healthy spores in control condition and in treated condition.
The EC50 is based the perturbation of the metabolic activity.

[2] = system: Phakopsora pachyrhizi; test: Field fungicide tests for Asian soybean rust on soybean, Brazil; type: in vivo; details: soybean field plots, three foliar applications; fenpropidin 75-300 g a.i./ha; FIGS. 1 and 2
Method: The experiments for fungicide tests for Asian soybean rust (Phakopsora pachyrhizi) were carried out at Experimental Stations in different regions of Brazil. Each plot consisted of at least 15.0 m^2 (3.0 m×5.0 m). The experimental design was a randomized block design with four replicates, using soybean varieties adapted to each region. Three applications of foliar treatments were carried out at 10 to 15 day intervals, depending on the soybean rust pressure at each site. The applications were made with backpack sprayer pressurized with CO^2 set to apply 150 L. ha-1 of spray volume and 0.460 L/min per nozzle. […] The applications of the treatments were performed when the soybean was in stages 60 (First flowers opened (sporadically in population), 72 (About 20% of pods have reached final length (15-20 mm)) and 79 (Approx. pods have reached final length (15-20 mm), seeds filling the cavity of the majority of pods) of the BBCH international scale, respectively. The results were evaluated prior to the application of the treatments, and at 7, 14 and 21, 28 and 35 days after the first application through the visual evaluation of the percentage of disease severity per plot. The harvest was evaluated at a minimum of 5.0 m^2 per plot, and the data were transformed into kg·ha-1.

In the case of CC(Cc1ccc(C(C)(C)C)cc1)CN1CCCCC1 (racemic) [Technical Fenpropidin, (±)-1-[3-[4-(1,1-dimethylethyl)phenyl]-2-methylpropyl]piperidine], the Efficacy % ([1]; Fenpropidin dose 0.002304 ppm) is reported as 10.17%, the Efficacy % ([1]; Fenpropidin dose 0.01152 ppm) is reported as 18.55% and the “EC50 (Mean)” value ([1]; mean of Exp 1-3) is reported as over 7.2 ppm. For the same compound, the EC50 ([1]; single experiments Exp 1-3) was over 7.2 ppm, the “% of efficiency, Mean” value ([1]; dose 0.0004608 ppm, mean of Exp 1-3) was 15.65% and the “% of efficiency, Mean” value ([1]; dose 0.002304 ppm, mean of Exp 1-3) was 10.17%. The “% of efficiency, Mean” value ([1]; dose 0.01152 ppm, mean of Exp 1-3) was 18.55%, the “% of efficiency, Mean” value ([1]; dose 0.0576 ppm, mean of Exp 1-3) was 12.90% and the “% of efficiency” value ([1]; dose 0.0576 ppm, single experiments Exp 1-3) was 10.9% and 12.4% and 15.5%. The “% of efficiency, Mean” value ([1]; dose 0.288 ppm, mean of Exp 1-3) was 13.31%, the “% of efficiency” value ([1]; dose 0.288 ppm, single experiments Exp 1-3) was 15.4% and 9.9% and 14.6% and the “% of efficiency, Mean” value ([1]; dose 1.44 ppm, mean of Exp 1-3) was 16.42%. For the same compound, the “% of efficiency, Mean” value ([1]; dose 7.2 ppm, mean of Exp 1-3) was 16.74%, the “EC50 (in 2018)” value ([1]; value in brackets, 'in 2018') was “(88.916 ppm in 2018)” and the “effectiveness against Phakopsora pachyrhizi” value [2] was “effective”.
Work on OC(Cc1ccccc1Cl)(Cn1cncn1)C1(Cl)CC1 (stereo not shown) [Desthio-prothiconazole, Desthio-prothioconazole] yielded an Efficacy % ([1]; Desthio-prothioconazole dose 0.004544 ppm) of 38.49% and an Efficacy % ([1]; Desthio-prothioconazole dose 0.02272 ppm) of 49.44%.
With Cn1cc(C(=O)Nc2ccccc2-c2cc(F)c(F)c(F)c2)c(C(F)F)n1 [Technical Fluxapyroxad, Fluxapyroxad] the Efficacy % ([1]; Fluxapyroxad dose 0.000576 ppm) was 15.24%, the Efficacy % ([1]; Fluxapyroxad dose 0.00288 ppm) was 24.72% and the “EC50 (Mean)” value ([1]; mean of Exp 1-3) was <>0.202 ppm. The EC50 ([1]; single experiments Exp 1-3) was <>0.190 ppm and <>0.214 ppm and <>0.202 ppm, the “% of efficiency, Mean” value ([1]; dose 0.0001152 ppm, mean of Exp 1-3) was 19.26% and the “% of efficiency, Mean” value ([1]; dose 0.000576 ppm, mean of Exp 1-3) was 15.24%. The “% of efficiency, Mean” value ([1]; dose 0.00288 ppm, mean of Exp 1-3) was 24.72%, the “% of efficiency” value ([1]; dose 0.00288 ppm, single experiments Exp 1-3) was 18.6% and 37.0% and the “% of efficiency, Mean” value ([1]; dose 0.0144 ppm, mean of Exp 1-3) was 18.40%. The “% of efficiency, Mean” value ([1]; dose 0.072 ppm, mean of Exp 1-3) was 29.12%, the “% of efficiency” value ([1]; dose 0.072 ppm, single experiments Exp 1-3) was 28.8% and 28.6% and 29.9% and the “% of efficiency, Mean” value ([1]; dose 0.36 ppm, mean of Exp 1-3) was 59.74%. For the same compound, the “% of efficiency” value ([1]; dose 0.36 ppm, single experiments Exp 1-3) was 61.7% and 52.3% and 65.2%, the “% of efficiency, Mean” value ([1]; dose 1.8 ppm, mean of Exp 1-3) was 80.82% and the “% of efficiency” value ([1]; dose 1.8 ppm, single experiments Exp 1-3) was 88.5% and 83.4% and 70.6%.
Mancozeb [Formulated Mancozeb] was tested, and the Efficacy % ([1]; Mancozeb dose 0.0128 ppm) was 33.27%, the Efficacy % ([1]; Mancozeb dose 0.064 ppm) was 50.68% and the “EC50 (Mean)” value ([1]; mean of Exp 1-3) was <>0.042 ppm. For the same compound, the EC50 ([1]; single experiments Exp 1-3) was <>0.037 ppm and <>0.058 ppm and <>0.032 ppm, the “% of efficiency, Mean” value ([1]; dose 0.00256 ppm, mean of experiments) was 11.22% and the “% of efficiency, Mean” value ([1]; dose 0.0128 ppm, mean of experiments) was 33.27%. For the same compound, the “% of efficiency” value ([1]; dose 0.0128 ppm, single experiments) was 39.9% and 26.2% and 33.7%, the “% of efficiency, Mean” value ([1]; dose 0.064 ppm, mean of experiments) was 50.88% and the “% of efficiency” value ([1]; dose 0.064 ppm, single experiments) was 59.2% and 43.2% and 49.7%. The “% of efficiency, Mean” value ([1]; dose 0.32 ppm, mean of experiments) was 88.10%, the “% of efficiency” value ([1]; dose 0.32 ppm, single experiments) was 80.8% and 94.2% and 89.3% and the “% of efficiency, Mean” value ([1]; dose 1.6 ppm, mean of experiments) was 95.20%. The “% of efficiency” value ([1]; dose 1.6 ppm, single experiments) was 93.6% and 98.7% and 93.2%, the “% of efficiency, Mean” value ([1]; dose 8 ppm, mean of experiments) was 94.99% and the “% of efficiency” value ([1]; dose 8 ppm, single experiments) was 89.4% and 98.9% and 96.6%. For the same compound, the “% of efficiency, Mean” value ([1]; dose 40 ppm, mean of experiments) was 96.58% and the “% of efficiency” value ([1]; dose 40 ppm, single experiments) was 92.3% and 99.5% and 97.8%.
